Experimental data as given in the supplement of paper PMC10307832.

Columns and labels:
Test in all cases: relative viability (nuclei count vs DMSO), 5 days (fraction); higher = more cells survive
[1] = compound: CC(C)N(CCCNC(=O)Nc1ccc(C(C)(C)C)cc1)C[C@H]1O[C@@H](n2ccc3c(N)ncnc32)[C@H](O)[C@@H]1O + CS(=O)(=O)CCNCc1ccc(-c2ccc3ncnc(Nc4ccc(OCc5cccc(F)c5)c(Cl)c4)c3c2)o1 [Lapatinib] (partner 2 µM)
Summary of the method: (§1)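 Nuclei were stained with Hoechst during a one-step fixation (final 0.05% Triton X-100, 1% formaldehyde, 1 ug/ml Hoechst) carried out 5 days after dosing, then counted on 4× images. The cells, lung cancer lines in 1536-well plates, had been dosed by pin tool the day after seeding with one drug alone or a fixed anchor-drug dose plus five library-drug doses (not always all listed) in √10 steps. Relative viability is the nuclei count in treated wells divided by that in vehicle wells, and each value is the median of duplicate plates.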

[2] = compound: CC(C)N(CCCNC(=O)Nc1ccc(C(C)(C)C)cc1)C[C@H]1O[C@@H](n2ccc3c(N)ncnc32)[C@H](O)[C@@H]1O + Cc1nc(Nc2ncc(C(=O)Nc3c(C)cccc3Cl)s2)cc(N2CCN(CCO)CC2)n1 [Dasatinib] (partner 0.075 µM)
Summary of the method: as §1

[3] = compound: CC(C)=CC[C@@H](O)C1=CC(=O)c2c(O)ccc(O)c2C1=O [Shikonin] + COc1cccc2cc(-c3nc([C@H]4CC[C@H](C(=O)O)CC4)n4ncnc(N)c34)[nH]c12 [OSI-027] (partner 0.5 µM)
Summary of the method: as §1

[4] = compound: CC(C)=CC[C@@H](O)C1=CC(=O)c2c(O)ccc(O)c2C1=O [Shikonin] + CS(=O)(=O)N1CCN(Cc2cc3nc(-c4cccc5[nH]ncc45)nc(N4CCOCC4)c3s2)CC1 [Pictilisib] (partner 1 µM)
Summary of the method: as §1

Cell Line | relative viability ([1]; first compound 0.08 µM) | relative viability ([1]; first compound 0.253 µM) | relative viability ([1]; first compound 0.8 µM) | relative viability ([1]; first compound 2.53 µM) | relative viability ([1]; first compound 8 µM) | relative viability ([2]; first compound 0.08 µM) | relative viability ([2]; first compound 0.8 µM) | relative viability ([2]; first compound 2.53 µM) | relative viability ([2]; first compound 8 µM) | relative viability ([3]; first compound 0.01 µM) | relative viability ([3]; first compound 0.1 µM) | relative viability ([3]; first compound 0.3162 µM) | relative viability ([3]; first compound 1 µM) | relative viability ([4]; first compound 0.01 µM) | relative viability ([4]; first compound 0.1 µM) | relative viability ([4]; first compound 0.3162 µM) | relative viability ([4]; first compound 1 µM) | relative viability ([2]; first compound 0.253 µM)
NCI-H596 | 1.17 | 0.946 | 0.971 | 1.08 | 1.06 | 0.603 | 0.528 | 0.561 | 0.619 | 0.584 | 0.968 | 0.754 | 0.679 | 0.341 | 0.385 | 0.422 | 0.4 | 
EKVX | 0.205 | 0.202 | 0.185 | 0.206 | 0.212 | 0.571 | 0.509 | 0.517 | 0.524 | 0.617 | 0.668 | 0.917 | 0.734 | 0.46 | 0.451 | 0.496 | 0.448 | 0.502
NCI-H358 | 0.433 | 0.443 | 0.427 | 0.357 | 0.393 | 0.172 | 0.171 | 0.174 | 0.165 | 0.681 | 0.699 | 0.712 | 0.662 | 0.297 | 0.366 | 0.281 | 0.343 | 0.158
EPLC-272H | 1.05 | 0.81 | 0.823 | 0.981 | 1.11 | 0.354 | 0.508 | 0.373 | 0.439 | 0.271 | 0.274 | 0.279 | 0.259 | 0.299 | 0.383 | 0.292 | 0.36 | 0.394
NCI-H1563 | 0.862 | 0.836 | 0.742 | 1.05 | 0.915 | 0.447 | 0.488 | 0.434 | 0.424 | 0.678 | 0.714 | 0.798 | 0.769 | 0.629 | 0.719 | 0.675 | 0.566 | 0.42
NCI-H1395 | 1.15 | 1.02 |  | 0.94 | 0.904 | 0.471 | 0.392 | 0.441 | 0.463 | 0.582 | 0.681 | 0.661 | 0.732 | 0.603 | 0.695 | 0.584 | 0.652 | 0.433
NCI-H2228 | 0.971 |  | 1.06 | 0.949 | 0.984 | 0.54 | 0.502 | 0.416 | 0.613 | 0.698 | 0.67 | 0.615 | 0.639 | 0.344 | 0.438 | 0.465 | 0.252 | 0.457
LXF-289 | 0.867 | 0.956 | 0.863 | 0.943 | 0.821 | 0.281 | 0.231 | 0.186 | 0.229 | 0.817 | 0.84 | 0.825 | 0.892 | 0.868 | 0.784 | 0.799 | 0.775 | 0.271
